According to patent US20230091047A1 (priority 2019, published 2023):
Read-outs that look alike come from different tables or passages of the source.

Tests used:
[1] = test system: HBV (HepG2.117 cell line, inducibly HBV producing); assay: Anti-HBV activity: intracellular HBV DNA by real-time PCR in HepG2.117 cells after 3 days of treatment; format: cell-based, hepatitis B virus
How it was run: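 Readout is intracellular HBV DNA, measured by real-time PCR with HBV-specific primers and probe after 3 days of exposure to serial compound dilutions. Cells are the stable HepG2.117 line, where HBV replication is induced in the absence of doxycycline.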

in vitro = format: cell-based; settings: human, HepG2 or HepG2.117 cells, mean value; for CC50 at 4 days: 4-days incubation (values marked with *)
How it was run: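 Luminescent ATP quantitation served as the viability endpoint following a 3- or 4-day incubation with test compounds.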

[2] = Hepatitis B virus, HepG2.117, 72 h, HepG2.117 cells, intracellular HBV DNA by real-time PCR, 3 days of treatment, mean value; read-out: EC50 (μM, mean value)
[3] = ATPlite, 3-days incubation (not marked with *)
[4] = Hepatitis B virus, HepG2.117, 72 h, HepG2.117 cells, 3 days of treatment, intracellular HBV DNA by real-time PCR; mean value; read-out: EC50 (μM, mean value)
[5] = 3-days incubation (unmarked values), ATPlite viability

Row | Compound | EC50 [1, 2] [µM] | CC50 at 3 days (in vitro; [3]) [µM] | other results
1 | CNC(=O)c1ccc(-n2c(N[C@@H]3CCOc4cc(OC)ccc43)nc3c(c2=O)C[C@@H](C)N(C(=O)c2ccc(Cl)c(Cl)c2)C3)cc1 (single isomer, unassigned) [Compound C527a] | 0.39 | > 50 | –
2 | CNC(=O)c1ccc(-n2c(N[C@H]3CCOc4cc(OC)ccc43)nc3c(c2=O)C[C@@H](C)N(C(=O)c2ccc(Cl)c(Cl)c2)C3)cc1 (single isomer, unassigned) [Compound C527b] | 0.65 | > 50 | –
3 | CNC(=O)c1ccc([C@@H](C)Nc2nc3c(c(=O)n2-c2ccc(NC(C)=O)cc2)C[C@@H](C)N(C(=O)c2ccc(Cl)c(Cl)c2)C3)cc1 (single isomer, unassigned) [Compound C528a] | 3.38 | > 50 | –
4 | CNC(=O)c1ccc([C@H](C)Nc2nc3c(c(=O)n2-c2ccc(NC(C)=O)cc2)C[C@@H](C)N(C(=O)c2ccc(Cl)c(Cl)c2)C3)cc1 (single isomer, unassigned) [Compound C528b] | > 10 | > 50 | –
5 | CNC(=O)c1ccc(-n2c(N[C@H](C)c3ccc4[nH]ncc4c3)nc3c(c2=O)C[C@@H](C)N(C(=O)c2ccc(Cl)c(Cl)c2)C3)cc1 (single isomer, unassigned) [Compound C529a] | 0.16 | > 50 | –
6 | CNC(=O)c1ccc(-n2c(N[C@@H](C)c3ccc4[nH]ncc4c3)nc3c(c2=O)C[C@@H](C)N(C(=O)c2ccc(Cl)c(Cl)c2)C3)cc1 (single isomer, unassigned) [Compound C529b] | 0.72 | > 50 | –
7 | CNC(=O)c1ccc([C@@H](C)Nc2nc3c(c(=O)n2-c2ccc(C(=O)NC)cc2)C[C@@H](C)N(C(=O)c2ccc(Cl)c(Cl)c2)C3)cc1 (single isomer, unassigned) [Compound C530a] | > 7.4 | > 50 | –
8 | CNC(=O)c1ccc([C@H](C)Nc2nc3c(c(=O)n2-c2ccc(C(=O)NC)cc2)C[C@@H](C)N(C(=O)c2ccc(Cl)c(Cl)c2)C3)cc1 (single isomer, unassigned) [Compound C530b] | > 10 | > 50 | –
9 | CNC(=O)c1ccc(-n2c(NC(C)C)nc3c(c2=O)C[C@@H](C)N(C(=O)c2ccc(Cl)c(C(F)(F)F)c2)C3)c(Cl)c1 (single isomer, unassigned) [Compound C639a] | 0.02 | > 50 | –
10 | CNC(=O)c1ccc(-n2c(N[C@H](C)c3ccc4[nH]cnc4c3)nc3c(c2=O)C[C@@H](C)N(C(=O)c2ccc(Cl)c(Cl)c2)C3)cc1 (single isomer, unassigned) [Compound C647a] | > 2.5 | > 50 | –
11 | CNC(=O)c1ccc(-n2c(N[C@@H](C)c3ccc4[nH]cnc4c3)nc3c(c2=O)C[C@@H](C)N(C(=O)c2ccc(Cl)c(Cl)c2)C3)cc1 (single isomer, unassigned) [Compound C647b] | > 2.5 | > 50 | –
12 | CNC(=O)c1ccc(-n2c(N[C@H](C)c3ccc(C(F)(F)F)c(F)c3)nc3c(c2=O)C[C@@H](C)N(C(=O)c2ccc(Cl)c(Cl)c2)C3)cc1 (single isomer, unassigned) [Compound C659a] | 0.12 | 6.8 | –
13 | CNC(=O)c1ccc(-n2c(N[C@H](C)c3cccc(C(F)F)c3)nc3c(c2=O)C[C@@H](C)N(C(=O)c2ccc(Cl)c(Cl)c2)C3)cc1 (single isomer, unassigned) [Compound C660a] | 1.3 | > 50 | –
14 | CNC(=O)c1ccc(-n2c(N[C@@H](C)c3cccc(C(F)F)c3)nc3c(c2=O)C[C@@H](C)N(C(=O)c2ccc(Cl)c(Cl)c2)C3)cc1 (single isomer, unassigned) [Compound C660b] | 0.32 | 27.5 | –
15 | CNC(=O)c1ccc(-n2c(N[C@H](C)c3ccc(C(F)(F)F)c(Cl)c3)nc3c(c2=O)C[C@@H](C)N(C(=O)c2ccc(Cl)c(Cl)c2)C3)cc1 (single isomer, unassigned) [Compound C664a] | 0.13 | 6.7 | –
16 | CNC(=O)c1ccc(-n2c(N[C@@H](C)c3ccc(C(F)(F)F)c(Cl)c3)nc3c(c2=O)C[C@@H](C)N(C(=O)c2ccc(Cl)c(Cl)c2)C3)cc1 (single isomer, unassigned) [Compound C664b] | > 2.5 | > 50 | –
17 | CNC(=O)c1ccc(-n2c(N[C@H](C)c3cnccn3)nc3c(c2=O)C[C@@H](C)N(C(=O)c2ccc(Cl)c(C(F)(F)F)c2)C3)cc1 (single isomer, unassigned) [Compound C665a] | 0.49 | > 50 | –

Row | Compound | EC50 [1, 2] [µM] | CC50 at 3 days (in vitro; [3]) [µM] | other results
18 | CNC(=O)c1ccc(-n2c(N[C@@H](C)c3cnccn3)nc3c(c2=O)C[C@@H](C)N(C(=O)c2ccc(Cl)c(C(F)(F)F)c2)C3)cc1 (single isomer, unassigned) [Compound C665b] | 0.65 | > 50 | –
19 | CNC(=O)c1ccc(-n2c(NC(C)C)nc3c(c2=O)C[C@@H](C)N(C(=O)c2ccc(Cl)c(C(F)(F)F)c2)C3)c(C(F)F)c1 (single isomer, unassigned) [Compound C669a] | 0.02 | 29.8 | –
20 | CC(C)Nc1nc2c(c(=O)n1-c1ccc(C(=O)NC3CC3)cc1Cl)C[C@@H](C)N(C(=O)c1ccc(Cl)c(C(F)(F)F)c1)C2 (single isomer, unassigned) [Compound C673a] | 0.03 | > 25 | –
21 | CNC(=O)c1ccc(-n2c(N[C@@H](C)C3CC3)nc3c(c2=O)C[C@@H](C)N(C(=O)c2ccc(Cl)c(C(F)(F)F)c2)C3)c(Cl)c1 (single isomer, unassigned) [Compound C676a] | 0.03 | > 50 | –
22 | CNC(=O)c1ccc(-n2c(NC(C)(C)C)nc3c(c2=O)C[C@@H](C)N(C(=O)c2ccc(Cl)c(C(F)(F)F)c2)C3)c(Cl)c1 (single isomer, unassigned) [Compound C677a] | – | – | EC50 [1, 4]: 0.02 µM; CC50 at 3 days (in vitro; [5]): > 50 µM
23 | CNC(=O)c1ccc(-n2c(NC(C)(C)C)nc3c(c2=O)C[C@@H](C)N(C(=O)c2ccc(Cl)c(C(F)(F)F)c2)C3)c(Cl)c1 (single isomer, unassigned) [Compound C677b] | 0.02 | 24 | –
24 | COc1cc(C(=O)NC2CC2)ccc1-n1c(NC(C)C)nc2c(c1=O)C[C@@H](C)N(C(=O)c1ccc(Cl)c(C(F)(F)F)c1)C2 (single isomer, unassigned) [Compound C678a] | 0.04 | 43 | –
25 | CNC(=O)c1ccc(-n2c(NC(C)C)nc3c(c2=O)C[C@@H](C)N(C(=O)c2ccc(Cl)c(C(F)F)c2)C3)c(Cl)c1 (single isomer, unassigned) [Compound C685a] | 0.03 | > 50 | –
26 | CNC(=O)c1ccc(-n2c(N[C@H](C)c3ccc(F)cc3F)nc3c(c2=O)C[C@@H](C)N(C(=O)c2ccc(Cl)c(Cl)c2)C3)cc1 (single isomer, unassigned) [Compound C689a] | 0.2 | 16.7 | –
27 | CNC(=O)c1ccc(-n2c(N[C@@H](C)c3ccc(F)cc3F)nc3c(c2=O)C[C@@H](C)N(C(=O)c2ccc(Cl)c(Cl)c2)C3)cc1 (single isomer, unassigned) [Compound C689b] | 0.46 | 27.3 | –
28 | CNC(=O)c1ccc(-n2c(N3CC4CC3C4)nc3c(c2=O)C[C@@H](C)N(C(=O)c2ccc(Cl)c(C(F)(F)F)c2)C3)c(Cl)c1 (single isomer, unassigned) [Compound C701a] | – | – | EC50 [1, 4]: 0.04 µM; CC50 at 3 days (in vitro; [5]): > 50 µM
29 | COc1ccc(CNc2nc3c(c(=O)n2-c2ccccc2OC)CCN(C(=O)c2ccc(Cl)c(Cl)c2)C3)cc1 [Compound C1, 7-(3,4-dichlorobenzoyl)-3-(2-methoxyphenyl)-2-{[(4-methoxyphenyl)methyl]amino}-5,6,7,8-tetrahydropyrido[3,4-d]pyrimidin-4(3H)-one] | – | – | EC50 [1, 4]: 1.47 µM; CC50 at 3 days (in vitro; 3-days incubation (unmarked values), ATPlite): > 50 µM
30 | COc1ccc(CNc2nc3c(c(=O)n2-c2ccccc2OC)CCN(C(=O)c2cc4ccccc4[nH]2)C3)cc1 [Compound C2, 7-(1H-indole-2-carbonyl)-2-((4-methoxybenzyl)amino)-3-(2-methoxyphenyl)-5,6,7,8-tetrahydropyrido[3,4-d]pyrimidin-4(3H)-one] | – | – | EC50 [1, 4]: 1.75 µM; CC50 at 4 days (in vitro; ATPlite): > 50 µM
31 | COc1ccc(CNc2nc3c(c(=O)n2-c2ccccc2OC)CCN(C(=O)c2ccc(F)c(Cl)c2)C3)cc1 [Compound C3, 7-(3-chloro-4-fluorobenzoyl)-3-(2-methoxyphenyl)-2-{[(4-methoxyphenyl)methyl]amino}-5,6,7,8-tetrahydropyrido[3,4-d]pyrimidin-4(3H)-one] | – | – | EC50 [1, 4]: 8.48 µM; CC50 at 4 days (in vitro; ATPlite): > 50 µM
32 | COc1ccccc1-n1c(SC)nc2c(c1=O)CCN(C(=O)c1ccc(Cl)c(Cl)c1)C2 [Compound C4, 7-(3,4-dichlorobenzoyl)-3-(2-methoxyphenyl)-2-(methylsulfanyl)-5,6,7,8-tetrahydropyrido[3,4-d]pyrimidin-4(3H)-one] | – | – | EC50 [1, 4]: 1.79 µM; CC50 at 4 days (in vitro; ATPlite): 36.8 µM
33 | COc1ccccc1-n1c(NCc2ccncc2)nc2c(c1=O)CCN(C(=O)c1ccc(Cl)c(Cl)c1)C2 [Compound C5, 7-(3,4-dichlorobenzoyl)-3-(2-methoxyphenyl)-2-{[(Pyridin-4-yl)methyl]amino}-5,6,7,8-tetrahydropyrido[3,4-d]pyrimidin-4(3H)-one] | – | – | EC50 [1, 4]: 5.35 µM; CC50 at 4 days (in vitro; ATPlite): > 50 µM
34 | CSc1nc2c(c(=O)[nH]1)CCN(C(=O)c1ccc(Cl)c(Cl)c1)C2 [Compound C6, 7-(3,4-dichlorobenzoyl)-2-(methylsulfanyl)-5,6,7,8-tetrahydropyrido[3,4-d]pyrimidin-4(3H)-one] | – | – | EC50 [1, 4]: 16 µM; CC50 at 4 days (in vitro; ATPlite): > 50 µM
